Test results from BigSolDB 2.1.

N#Cc1cccnc1
solubility (mole fraction)
Settings	in acetone	in ethanol	in ethyl acetate	in isobutanol	in methanol	in n-butanol	in n-propanol	in tetrachloromethane
268.15 K	0.247	0.0429	0.209	0.028	0.0877	0.025	0.0434	0.0098
273.15 K	0.29	0.0593	0.247	0.0396	0.111	0.0393	0.0658	0.0152
278.15 K	0.329	0.0903	0.282	0.0702	0.153	0.0645	0.0976	0.024
288.15 K	0.438	0.201	0.375	0.17	0.267	0.164	0.214	0.095
298.15 K	0.541	0.339	0.478	0.3	0.404	0.275	0.348	0.239
308.15 K	0.664	0.491	0.63	0.435	0.541	0.427	0.5	0.393
318.15 K	0.833	0.627	0.803	0.6	0.726	0.577	0.643	0.568

N#Cc1ccncc1
solubility (mole fraction)
Settings	in acetone	in ethanol	in ethyl acetate	in isobutanol	in methanol	in n-butanol	in n-propanol	in tetrachloromethane
268.15 K	0.117	0.0065	0.106	0.0133	0.0245	0.0141	0.0246	0.0129
273.15 K	0.134	0.016	0.121	0.0176	0.0302	0.0149	0.0271	0.0194
278.15 K	0.155	0.0179	0.142	0.0229	0.0361	0.0216	0.0396	0.0292
288.15 K	0.213	0.0367	0.203	0.0469	0.062	0.0471	0.07	0.0396
298.15 K	0.275	0.0706	0.261	0.108	0.0954	0.0898	0.129	0.0839
308.15 K	0.356	0.136	0.343	0.172	0.173	0.151	0.19	0.151
318.15 K	0.46	0.273	0.437	0.304	0.304	0.284	0.298	0.287
